Test results published in patent US20190255087A1, “ENCAPSULATION AND HIGH LOADING EFFICIENCY OF PHOSPHORYLATED DRUG AND IMAGING AGENTS IN NANOPARTICLES” (THE PENN STATE RESEARCH FOUNDATION, priority 2016, published 2019).
“And” between values parts separate entries of the source, which are not always exact repeats. Equal values may be shown once.

Experiments:
[1] = Encapsulated drug concentration and encapsulation efficiency (EE) in Cit-X-CPSNPs by LC-MS/MS; format: physicochemical; conditions: for Drug concentration (M) / EE (mol %): citrate-functionalized CPSNPs, weighted mean ± 95% confidence interval, n = 4-6 replicates
Experimental: The encapsulation efficiencies (EE) in Table 1 was experimentally determined by LC-MS/MS for 5FU, 5FU:ATP, FUdR, FdUMP, Gem, and GemMP, as drawn in FIG. 2 1. The EE is defined by the following equation,
(§1) where mi was the total drug content in moles and mf was the moles encapsulated as assessed by LC-MS/MS. Particles were diluted in 10% methanol with 0.1% formic acid and 5-CU was spiked in as an internal standard. Chromatography was done on a 2.1 mm×10 cm HSS T3 or C18 CSH column (Waters) on a Waters I-class FTN chromatography system with the column temperature at 40° C. Mobile phase A was water with 5 mM ammonium acetate and B was methanol. The flow rate was 0.5 mL/min and the chromatography consisted of holding at 7.5% B for 1 min, increasing to 95% B over 0.5 min, holding at 95% B for 0.5 min before equilibration to starting conditions. Eluate was analyzed by an inline Waters TQ-S mass spectrometer. The capillary was set at 1.0 kV, source temperature at 150° C., desolvation temperature at 600° C., cone gas at 150 L/hr, and desolvation gas flow at 1200 L/hr. Multiple reaction monitoring (MRM) was used to detect 5-CU, FdUMP, Gem, and GemMP. The MRM transition used for 5-CU was 145 >42 with the collision energy set at 12. The MRM transition used for drug agents was 325 >195 with the collision energy set at 12. Drug concentrations were determined using TargetLynx version 4.1 (Waters) using an external calibration curve with 1/x weighting.
as §1, with “Particles” for “where mi was the total drug content in moles and mf was the moles encapsulated as assessed by LC-MS/MS. Particles”, “5-CU” for “5-CU, FdUMP, Gem,”, “FdUMP.” for “GemMP.”, “FdUMP” for “drug agents”, “FdUMP” for “Drug”

[2] = target: T1, thymidylate synthase (TS) (Homo sapiens, UniProt P04818); test: Thymidylate synthase immunoblotting, BxPC-3 cells; format: cell-based; design: PANC-1 cells were incubated for 24 hours in the following treatment groups; endogenous in cells; conditions: 250 μM free FdUMP
PANC-1 [3] = test: Cell proliferation assay (alamarBlue); format: cell-based, human; conditions: for EC50 of free drug, PANC-1: in words
Description: (§2) CPSNPs in 70/30 ethanol/water suspensions were completely dried under pre-purified argon and reconstituted in sterile 1×PBS without calcium or magnesium.
(§3) BxPC-3 and Panc-1 were obtained from ATCC. RLT-PSC pancreatic stellate cells were a gift from Professor Ralf Jesenofsky, University of Heidelberg, and H6c7, immortalized human pancreatic ductal epithelial cells, were a gift of Dr. Ming-Sound Tsao, University of Toronto. H6c7 cells have a near normal genotype with wild type p53 and KRAS genes. Cells were cultured in the appropriate media as follows: Dulbecco's modified Eagle medium with 10% FBS for PANC-1 and RLT-PSC, RPMI 1640 with 10% FBS for BxPC-3, and complete keratinocyte basal medium (KBM), containing growth factors, hormones and bovine pituitary extract for H6c7 cells (Invitrogen).
(§4) PANC-1, BxPC-3, RLT-PSC and H6c7 cells were seeded into 96 well plates at 5,000 cells per well. At 24 hours post seeding, media only/no treatment (NT), vehicle (lx sterile PBS without calcium and magnesium), 5FU and FdUMP treatments were initiated and viable cells determinations were made at 24, 48 or 72 hr post-treatment using an alamarBlue® assay (Life Technologies). Data were normalized to vehicle treatments for all time points.
as §4, with “CPSNPs in 70/30 ethanol/water suspensions were completely dried under pre-purified argon and reconstituted in sterile 1×PBS without calcium or magnesium. PANC-1,” for “PANC-1,”, “(1×” for “(lx”
(§5) Results were expressed as means±standard error. Student t-tests were used to evaluate statistical significance with a p<0.05 considered to be significant. To calculate EC50±95% CI, nonlinear regression analysis was performed to generate the curve of best fit for the data according to a Sigmoidal regression using a 4-parameter logistic curve calibration [Y=Yo+(a/(1+((X/Xo)^b))] in SigmaPlot 12 (Systat, Inc.).

BxPC-3 = test: Cell proliferation assay (alamarBlue); format: cell-based, human; conditions: for Decrease of BxPC-3 proliferation: 200 μM free drug; for EC50 of free drug, BxPC-3: in words
Description: as §2, §3, §4
as §4, with “CPSNPs in 70/30 ethanol/water suspensions were completely dried under pre-purified argon and reconstituted in sterile 1×PBS without calcium or magnesium. PANC-1,” for “PANC-1,”, “(1×” for “(lx”
as §5

PANC-1 [4] = test: Cell cycle analysis by propidium iodide flow cytometry; format: cell-based, human; conditions: PANC-1, 72 hr, 250 μM
Experimental: (§6) For determination of nuclear DNA content, PANC-1 treatments included NT, vehicle (1× sterile calcium- and magnesium-free PBS), 250 μM free FdUMP, Ghost-CPSNPs, or 200 nM FdUMP-CPSNPs. After 72 hours of treatment, cells were fixed in 75% ethanol overnight. Immediately prior to analysis, cells were treated with 1 μg/mL of RNase A and stained with 50 μg/mL of propidium iodide, which is taken up by double-stranded DNA. DNA content was determined using a FACSCalibur flow cytometer (BD Biosciences), and data were analyzed with Cellquest (Verity Software).
as §6, with “FdUMP, ghost-CPSNPs,” for “FdUMP, Ghost-CPSNPs,”, “50 µg/mL” for “50 μg/mL”

[5] = target: T1, thymidylate synthase (TS); test: Thymidylate synthase immunoblotting, PANC-1 cells; format: cell-based; design: endogenous in cells; host or cells: PANC-1 (ATCC); conditions: 250 μM free FdUMP
Experimental: Thus in the presence of folate, TS dimers and FdUMP create an irreversibly inactivated enzyme:drug complex.^59 Experimentally, the inhibition of TS activity by FdUMP can be detected by the presence of this stable ternary complex.
PANC-1 cells were incubated for 24 hours in the following treatment groups: NT, vehicle, 250 μM free FdUMP, 200 nM FdUMP-CPSNPs, and Ghost-CPSNPs in PBS. Lysates were collected by aspirating the media, washing with 1×PBS, and adding RIPA buffer containing Complete Mini protease cocktail (Roche). Lysates were spun to remove debris and the supernatants frozen at −80° C. Protein concentration was determined by micro BCA protein assay (Thermo Scientific) and 20 μg of protein separated by gel electrophoresis. After transfer to HyBond ECL and blocking for 1 hr in 5% BSA, blots were probed overnight with anti-TS antibody (1:1000, D5B3, #9045 Cell Signaling). Blots were washed, probed with anti-rabbit-HRP secondary antibody for 1 hour and developed with Pierce Pico (Thermo Scientific). Quantitation of scanned blots was done using Image J software.
PANC-1 cells were incubated for 24 hours in the following treatment groups: NT, vehicle, 250 μM free FdUMP, 200 nM FdUMP-CPSNPs, and ghost-CPSNPs in PBS. […] Lysates were spun to remove debris and the supernatants frozen at −80° C. […] Quantitation of scanned blots was done using Image J software.

[6] = in vivo; cited from earlier work

T1 sequence (P04818 2-313 limits assumed): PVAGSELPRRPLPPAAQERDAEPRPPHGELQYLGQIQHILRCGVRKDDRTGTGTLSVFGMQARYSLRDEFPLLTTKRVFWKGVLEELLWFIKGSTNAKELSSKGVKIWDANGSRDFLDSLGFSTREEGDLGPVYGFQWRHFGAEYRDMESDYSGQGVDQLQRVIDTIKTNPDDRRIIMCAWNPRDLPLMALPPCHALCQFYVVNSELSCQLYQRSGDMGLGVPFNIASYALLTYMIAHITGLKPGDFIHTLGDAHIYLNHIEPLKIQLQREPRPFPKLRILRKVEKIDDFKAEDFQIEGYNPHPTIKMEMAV

EE, range over replicated formulations ([1]; Cit-X-CPSNPs)	Drug concentration (M) [1]	EE (mol %) [1]	EC50 of free drug, PANC-1 (PANC-1 [3])	EC50 of free drug, BxPC-3 (BxPC-3)	Compound	TS in inactive ternary complex (inhibition), BxPC-3 [2]	Reduction of PANC-1 proliferation (PANC-1 [3]; 200 μM free drug)	Decrease of BxPC-3 proliferation (BxPC-3)	% Cells in G2/M (PANC-1 [4])	% Cells in G1/G0 (PANC-1 [4]; listed as free FdUMP)	% Cells in S (PANC-1 [4]; listed as free FdUMP)	Encapsulated drug concentration, range over replicated formulations ([1]; Cit-X-CPSNPs)	TS in inactive ternary complex (inhibition), PANC-1 [5]	Fraction of 5FU catabolized to 5-fluorodihydrouracil by DPD [6]	Fraction of 5FU pro-drug activated to FdUMP [6]
< 0.01 mol %	2.8 (±1.2)×10^−8 M	< 0.01 mol %	–	–	O=c1[nH]c(=O)n([C@H]2C[C@H](O)[C@@H](CO)O2)cc1F [FUdR, 5-fluoro-2′-deoxyuridine]	–	–	–	–	–	–	–	–	–	–
–	4.1 (±1.8)×10^−7 M	0.11 (±0.04) mol %	low uM	low uM	O=c1[nH]cc(F)c(=O)[nH]1 [Formulation 5FU, 5-fluorouracil]	–	–	equally effective	–	–	–	–	–	more than 80%	less than 20%
–	1.9 (±0.6)×10^−9 M	< 0.01 mol %	–	–	Nc1ccn([C@@H]2O[C@H](CO)[C@@H](O)C2(F)F)c(=O)n1 [Gem, 2′,2′-difluorodeoxycytidine]	–	–	–	–	–	–	–	–	–	–
15-30 mol %	2.3 (±0.4)×10^−5 M	22 (±6) mol %	nM range	nM range	gemcitabine monophosphate [GemMP]	–	–	–	–	–	–	–	–	–	–

Compound	EE, range over replicated formulations ([1]; Cit-X-CPSNPs)	Drug concentration (M) [1]	EE (mol %) [1]	EC50 of free drug, PANC-1 (PANC-1 [3])	EC50 of free drug, BxPC-3 (BxPC-3)	TS in inactive ternary complex (inhibition), BxPC-3 [2]	Reduction of PANC-1 proliferation (PANC-1 [3]; 200 μM free drug)	Decrease of BxPC-3 proliferation (BxPC-3)	% Cells in G2/M (PANC-1 [4])	% Cells in G1/G0 (PANC-1 [4]; listed as free FdUMP)	% Cells in S (PANC-1 [4]; listed as free FdUMP)	Encapsulated drug concentration, range over replicated formulations ([1]; Cit-X-CPSNPs)	TS in inactive ternary complex (inhibition), PANC-1 [5]	Fraction of 5FU catabolized to 5-fluorodihydrouracil by DPD [6]	Fraction of 5FU pro-drug activated to FdUMP [6]
O=c1[nH]c(=O)n([C@H]2C[C@H](O)[C@@H](COP(=O)(O)O)O2)cc1F [FdUMP, 5-fluoro-2′-deoxyuridine 5′-monophosphate]	7-97 mol %	3.0 (±1.4)×10^−4 M	41 (±16) mol %	low uM	low uM	90%	twice as effective as free 5FU	equally effective	23.5 ± 6.3%	20% and 20.3 ± 3.0%	56% and 56.3 ± 10.3%	60 to 830 µM	80%	–	–
